In one data set the test system is Mice immunized with KLH. Briefly: Nerve block: antigen signal in sciatic lymph node after bupivacaine. The class given is in vivo. To be noted: 25 μl bupivacaine 0.375% at sciatic and femoral nerves before KLH-800CW in hind paw, imaged after one hour, mean±SEM, saline control 31.45±3.759, p<0.05. How it is done: In situ Antigen Imaging. 20 μl of 100 μg/ml labeled antigen was injected subcutaneously into the dorsum of the hind paw with an insulin syringe. After the predetermined time, the animal was euthanized using carbon dioxide, the skin over the area of interest was removed, and the animal was placed in a supine position in an Odyssey infrared imager. To image lymph node antigen content, sciatic and popliteal lymph nodes were surgically removed and placed into black, clear-bottomed 96-well plates filled with T-per (Thermo Scientific). These plates were imaged on the Odyssey imager. Immunization. Unlabeled antigen (100 μg) and 50% Imject alum (Thermo Scientific) in 200 μl 0.9% saline was injected intraperitoneally. Two weeks later, animals were injected again with the same solution as a booster. Two weeks after the booster injection, animals were used for experiments. Control animals received injections of 50% alum in saline. Nerve Block. Mice were immunized with 100 μg antigen and 50% Imject alum in 200 μl saline injected intraperitoneally twice, two weeks apart. Two weeks after the second injections, 25 μl bupivacaine (0.375%, APP Pharmaceuticals) or 0.9% saline was injected at the sciatic nerve and the femoral nerve of the hind leg. 20 minutes after the initial injection, animals were injected with labeled antigen in the dorsum of the hind paw. […]

A further data set has as its system Naïve Balb/c mice. Briefly: Passive immunization: labeled antigen accumulation in sciatic lymph nodes. Format: in vivo. To be noted: naïve mice given rabbit polyclonal anti-OVA antibodies i.p.; 24 hours later 800CW-labeled antigen s.c. in dorsum of hind paw; imaged after one hour; mean±SEM. How it is done:
In situ Antigen Imaging. 20 μl of 100 μg/ml labeled antigen was injected subcutaneously into the dorsum of the hind paw with an insulin syringe. After the predetermined time, the animal was euthanized using carbon dioxide, the skin over the area of interest was removed, and the animal was placed in a supine position in an Odyssey infrared imager. To image lymph node antigen content, sciatic and popliteal lymph nodes were surgically removed and placed into black, clear-bottomed 96-well plates filled with T-per (Thermo Scientific). These plates were imaged on the Odyssey imager.
Passive Immunization. Naïve Balb/c mice were injected intraperitoneally with 100 μg rabbit polyclonal anti-ovalbumin antibody (Millipore). After 24 hours, mice were injected with OVA-800CW or KLH-800CW subcutaneously in the dorsum of the hind paw. After one hour, mice were euthanized and imaged.

Regarding `CCCCN1CCCCC1C(=O)Nc1c(C)cccc1C` (centres unmarked) [bupivacaine], the “antigen signal in the sciatic lymph node (KLH-800CW fluorescence)” value with Mice immunized with KLH amounted to 45.65±5.350.

B1: OVA: ovalbumin labeled with IrDye 800CW-NHS ester infrared fluorescent dye (conjugate, UniProt P01012 2-386, looked up)
Ovalbumin: GSIGAASMEFCFDVFKELKVHHANENIFYCPIAIMSALAMVYLGAKDSTRTQINKVVRFDKLPGFGDSIEAQCGTSVNVHSSLRDILNQITKPNDVYSFSLASRLYAEERYPILPEYLQCVKELYRGGLEPINFQTAADQARELINSWVESQTNGIIRNVLQPSSVDSQTAMVLVNAIVFKGLWEKAFKDEDTQAMPFRVTEQESKPVQMMYQIGLFRVASMASEKMKILELPFASGTMSMLVLLPDEVSGLEQLESIINFEKLTEWTSSNVMEERKIKVYLPRMKMEEKYNLTSVLMAMGITDVFSSSANLSGISSAESLKISQAVHAAHAEINEAGREVVGSAEAGVDAASVSEEFRADHPFLFCIKHIATNAVLFFGRCVSP
modifications: IRDye 800CW label
notes: ovalbumin labeled with IrDye 800CW-NHS ester infrared fluorescent dye
Turning to B1, the “accumulation of labeled antigen in the sciatic lymph nodes (fluorescence signal)” value in the data set on Naïve Balb/c mice came to 6.483±1.461.

For the origin of these results see US10926086B2, “Lymphatic system neuromodulation and uses thereof” (THE FEINSTEIN INSTITUTES FOR MEDICAL RESEARCH, priority 2016, dated 2021).
